Experiments:
Type in all cases: cell-based
[1] = CCK-8 assay; details: human; RD cells, data not shown
Method: RD cells were seeded in 96-well cell plates (1×10^4/well) and placed in the 5% CO2 incubator for 1 day. Then the cells were treated with peptides for 2 days. 90 μl medium and 10 μl of CCK-8 (BioSharp, BS350B) was added to each well of the 96-well plate, which were incubated at 37° C. for 1 h. A microplate reader (BioTek, Synergy H1) was used to measure the OD value of each well at 450 nm.

[2] = test system: EV-A71; experiment: Virus titration (TCID50); details: TCID50, RD cells (FIG. 10K)
Method: (§1) FIGS. 10A-10K. Peptide S78 inhibited EV-A71 replication and propagation. (FIG. 10A) RD cells were pre-treated with peptides S78 or for 2 hours and infected with EV-A71 at the MOI of 10 for 6 hours. Cell lysates were collected for western blot assay. Hsp27 phosphorylation on Ser 15, 78, 82 were detected by specific antibodies. β-Actin were detected as internal control. (FIG. 10B) Densitometric analysis of FIG. 9A. (FIG. 10C) HEK 293T cells were pre-treated with peptides S78 or S78A at the concentration of 25 μM for 2 hours and then co-transfected with Hsp27-WT plasmid (800 ng), pIRES reporter plasmid (200 ng) and 2A^pro-expressing plasmid or 2AC110A-expressing plasmid (200 ng) for 24 h, then the luciferase activity was measured. (FIG. 10D-10E) RD cells were treated with peptides S78 or S78A and then infected with EV-A71. EV-A71 VP1 were detected. (FIG. 10F) RD cells were treated with peptides and then infected with EV-A71 at the MOI of 1 for 12 hours. The EV-A71-induced CPE was captured. (FIG. 10G-10H) Intracellular viral RNA was extracted and quantified by qPCR. (FIG. 10I) Densitometric analysis FIG. 9D-E. (FIG. 10J) RD cells were treated with peptides S78 or and then infected with EV-A71 at the MOI of 1 for 12 hours. Extracellular viral RNA was extracted and quantified by qPCR. (FIG. 10K) Viral titration was calculated by TCID50. […] Data are expressed as mean ±SD.
FIGS. 11A-11G Inhibition of EV-A71 Protein Translation and Viral Reproduction by peptide S82A. (FIG. 11A) HEK 293T cells were pre-treated with peptides NC, S78, S78A, S82A, or S78-3A at the concentration of 25 μM for 2 hours and then co-transfected with Hsp27-WT plasmid (800 ng), pIRES reporter plasmid (200 ng) and 2A^pro-expressing plasmid for 24 h, then the luciferase activity was measured. […] Intracellular viral RNA was extracted and quantified by qPCR. […] EV-A71 VP1 were detected. β-Actin was detected as an internal control. (FIG. 11F) Densitometric analysis of the EV-A71 VP1 level in FIG. S7C-E was quantified and normalized with β-Actin using ImageJ. […] Viral titration was calculated. […] Data are expressed as mean ±SD. […]

[3] = test system: EV-A71; experiment: EV-A71-induced cytopathic effect (CPE) on RD cells; details: EV-A71 MOI 1 for 12 hours
Method: as §1, with “±SD. […]” for “±SD.”

[4] = test system: EV-A71 IRES activity; experiment: Dual-luciferase IRES reporter assay in RD cells; details: 2 μM for 2 h, RD cells co-transfected with 2Apro and pIRES reporter plasmids 24 h
Method: FIGS. 6A-6C Ser78 phosphorylation-deficient Hsp27 suppresses the viral IRES activity. (FIG. 6A) RD cells were pretreated with 2 μM SB203580 for 2 h, then co-transfected with a 2A^pro-expressing plasmid (200 ng) and pIRES reporter plasmid (200 ng) for 24 h, then the luciferase activity was measured. (FIG. 6B) HEK 293T cells were co-transfected with Hsp27 (WT, 3A, S15A, S78A, and S82A) plasmid (800 ng), pIRES reporter plasmid (200 ng) and 2A^pro-expressing plasmid (200 ng) for 24 h, then the luciferase activity was measured. (FIG. 6C) HEK 293T cells were co-transfected with Hsp27 (WT, 3A, S15A, S78A, 3D S15D, and S78D) plasmid (800 ng), pIRES reporter plasmid (200 ng) and 2A^C110A-expressing plasmid (200 ng) for 24 h, then the luciferase activity was measured. Statistical analyses were carried out using Student's t-test. *: p<0.05, **: p<0.01, ***: p<0.001. Data are expressed as mean ±SD.
HEK 293T cells were seeded in 24-wells, and then co-transfected with plasmids to simultaneously express 2A^pro (200 ng), pIRES reporter (200 ng), and the wild-type Hsp27 or its mutants (800 ng). […] The Renilla luciferase (RLuc) and Firefly luciferase (FLuc) activity were determined by using a dual-luciferase reporter assay (Promega) according to the manufacturer's instructions in a Lumat LB9507 bioluminometer. […]

Compound	CC50 at 2 days [1] [µM]	decrease of viral titer [2] [folds]	protection from EV-A71-induced CPE [3]	reduction of IRES activity [4] [%]
Ac-RKKRRQRRRAYSRALSRQLSS-NH2 [S78]	> 600	450	dramatically protected	–
Ac-RKKRRQRRRAYSRALARQLSS-NH2 [S78A]	> 600	50	mild protection	–
C[S+]([O-])c1ccc(-c2nc(-c3ccncc3)c(-c3ccc(F)cc3)[nH]2)cc1 (stereo not shown) [SB203580, reference compound]	–	–	–	32
